# Values quoted from earlier work, collected in patent US6653469B1, “Antibiotic purification method” (Murty Pharmaceuticals, Inc., priority 2002, dated 2003).
# Tests used:
# [1] = not given; remark: listed apart in the source
# [2] = test system: heat shock protein 90 (Hsp90)
"solubility in acetone, benzene, and ethyl acetate (acetone, benzene, ethyl acetate)","solubility in alcohols and aliphatic chlorinated solvents such as chloroform (alcohols, chloroform)",solubility in water (water),"stability to acid, base, or heat ([1]; acid, base, or heat in the presence of oxygen)",photolytic stability ([1]; aqueous and nonaqueous solutions),Compound,binding to Hsp90 and effect on Hsp90 function [2]
less soluble,soluble,only slightly soluble,decompose easily,undergoes photolytic degradation,COC1=C2C[C@@H](C)C[C@H](OC)[C@H](O)[C@@H](C)/C=C(\C)[C@H](OC(N)=O)[C@@H](OC)/C=C\C=C(/C)C(=O)NC(=CC1=O)C2=O [geldanamycin],–
–,–,–,–,–,COC1CC(C)C(OC)c2cc(O)cc(c2O)NC(=O)/C(C)=C\C=C/C(C)C(OC(N)=O)/C(C)=C\C(C)C1OC (stereo not shown) [macbecin II],bind specifically to Hsp90
–,–,–,–,–,CO[C@H]1[C@@H](OC)C[C@H](C)[C@@H](OC)C2=CC(=O)C=C(NC(=O)/C(C)=C/C=C\[C@H](OC)[C@@H](OC(N)=O)/C(C)=C/[C@@H]1C)C2=O [herbimycin A],bind specifically to Hsp90
